Experimental data reported in patent US11634388B2 (Chengdu Easton Biopharmaceuticals Co., Ltd., priority 2018, dated 2023).
Counter-ions that a name gives are not always drawn.

What was measured:
[1] = Determination of the dissolution rate (500 ml medium, 37° C., 50 r/min, HPLC); format: physicochemical
Protocol: (50 r/min). At 5 min, 10 min, 15 min, 20 min, 30 min, 45 min and 60 min, the concentrations of lenvatinib in the medium were determined by using high performance liquid chromatography.

[2] = Pharmacokinetic study in rats; format: in vivo; conditions: male, rat, plasma, po; SD rats, intragastric 10 mg/kg, suspension in oil, mean ± SD
Protocol: About 20 mg of the test drug was taken, added into 8 mL of vegetable oil and shaken well, to prepare a 2.5 mg/mL suspension.
6 SD rats, all males, 200-220 g, provided by Chengdu Dashuo Biotechnology Co., Ltd.
The rats were intragastrically administrated with 10 mg/kg of the drug. Before administration and at 5 min, 15 min, 30 min, 1 h, 2 h, 4 h, 6 h, 8 h, 24 h after administration, 0.2 mL of jugular blood was taken and placed in EDTA-K2 anticoagulant tube, centrifuged for 10 min at 3000 r/min. The plasma was separated and frozen in the refrigerator at −80° C. After all blood collections were completed, the blood drug concentration in each blood sample was analyzed and determined autonomously, and the parameters of the test drugs (Tmax, time to maximum plasma concentration; Cmax, maximum plasma concentration; AUClast) were calculated.

[3] = Stability study of crystal form (XRPD before and after placement); format: physicochemical
[4] = prior art WO2018164436; cited from earlier work
[5] = pH 1.0 medium (hydrochloric acid), 5 min
[6] = pH 6.8 medium (potassium dihydrogen phosphate buffer), 5 min

Structure (SMILES) | concentration of lenvatinib in the medium [1, 5] [µg/mL] | concentration of lenvatinib in the medium ([1]; pH 1.0 medium, 10 min) [µg/mL] | concentration of lenvatinib in the medium ([1]; pH 1.0 medium, 15 min) [µg/mL] | concentration of lenvatinib in the medium ([1]; pH 1.0 medium, 20 min) [µg/mL] | concentration of lenvatinib in the medium ([1]; pH 1.0 medium, 30 min) [µg/mL] | concentration of lenvatinib in the medium ([1]; pH 1.0 medium, 45 min) [µg/mL] | concentration of lenvatinib in the medium ([1]; pH 1.0 medium, 60 min) [µg/mL] | concentration of lenvatinib in the medium [1, 6] [µg/mL] | concentration of lenvatinib in the medium ([1]; pH 6.8 medium, 10 min) [µg/mL] | concentration of lenvatinib in the medium ([1]; pH 6.8 medium, 15 min) [µg/mL] | concentration of lenvatinib in the medium ([1]; pH 6.8 medium, 20 min) [µg/mL] | concentration of lenvatinib in the medium ([1]; pH 6.8 medium, 30 min) [µg/mL] | concentration of lenvatinib in the medium ([1]; pH 6.8 medium, 45 min) [µg/mL] | concentration of lenvatinib in the medium ([1]; pH 6.8 medium, 60 min) [µg/mL] | also measured
COc1cc2nccc(Oc3ccc(NC(=O)NC4CC4)c(Cl)c3)c2cc1C(N)=O [Crystal form X, lenvatinib mesylate] | 1480 | 1540 | 1540 | 1520 | 1560 | 1570 | 1600 | 3.6 | 3.8 | 3.9 | 3.9 | 3.9 | 3.9 | 4 | AUC(0-t) [2]: 90900 ± 19600 ng·h/mL; Cmax [2]: 9.87 µg/mL; Tmax [2]: 1.17 ± 0.41 h; crystal transformation before and after the stability tests ([3]; all conditions of Table 4): did not undergo crystal transformation; Result of crystal form (XRPD) ([3]; high humidity 25° C., RH 93.5%, 1 month): No obvious change; Result of crystal form (XRPD) ([3]; high humidity 25° C., RH 93.5%, 7 days): No obvious change; Result of crystal form (XRPD) ([3]; strong light illumination, 7 days): No obvious change; Result of crystal form (XRPD) ([3]; temperature 2~8° C., 10 days): No obvious change
COc1cc2nccc(Oc3ccc(NC(=O)NC4CC4)c(Cl)c3)c2cc1C(N)=O [crystal form M, lenvatinib mesylate] | – | – | – | – | – | – | – | – | – | – | – | – | – | – | solubility [4]: not evidently improved
COc1cc2nccc(Oc3ccc(NC(=O)NC4CC4)c(Cl)c3)c2cc1C(N)=O [Crystal form C, lenvatinib mesylate, reference compound] | 410 | 470 | 520 | 550 | 610 | 670 | 720 | 2.7 | 3 | 3.1 | 3.2 | 3.3 | 3.4 | 3.5 | –
